The values that follow are results of earlier work, collected in patent publication US11866384B2, “Compositions and their use in agricultural applications” (SYNSUS PRIVATE LABEL PARTNERS, LLC, priority 2018, dated 2024).

For dicyandiamide, the solubility in water entry was “about 41 grams per liter”.
